# Assay: gradient 5% acetonitrile 3 min, to 50% in 2 min, to 85% in 15 min, held 3 min, 100 µL/min
# Conditions: column: Zorbax Extend-C18 2.1 x 50 mm; eluents: water / acetonitrile, 0.1% formic acid
# Procedure, shortened: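 Over 3 months, pure standards in mixtures of ~100 molecules were run by HPLC coupled to a quadrupole time-of-flight mass spectrometer in positive and negative ionization mode. The column was a Zorbax Extend-C18 (2.1 × 50 mm, 1.8 μm) at 100 μL/min, eluted with water and acetonitrile each holding 0.1% formic acid, with 40 μL dead and 900 μL dwell volumes. Retention time was determined from adduct peaks chosen by software and checked manually.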
row,RP-LC retention time [s],SMILES
1,870,Cc1oc2ccn(Cc3ccc(F)cc3)c(=O)c2c1C(=O)NCC1CCCO1 (stereo unspecified)
2,976,COc1cccc(S(=O)(=O)N2CCCN(C)c3ccccc32)c1
3,924,COc1cc(OC)c(NC(=O)c2cc3c(=O)n(CC(C)C)ccc3n2C)cc1Cl
4,690,CCn1cc(CC(=O)NCc2ccc3c(c2)OCO3)c2cccnc21
5,672,CN(C)CCNC(=O)c1cn(C)nc1S(=O)(=O)N1CCN(c2ccc(Cl)cc2)CC1
6,735,COC1CCC12CCN(C(=O)c1ccco1)CC2 (stereo unspecified)
7,702,COc1cc(C(=O)N(Cc2cccs2)C2CCS(=O)(=O)C2)cc(OC)c1OC (stereo unspecified)
8,893,COc1ccc(N2C=C(C#N)S(=O)(=O)c3cc(F)ccc32)c(OC)c1
9,577,Cc1nccn1CC(=O)N1CCC(OCc2nc(C3CC3)no2)CC1
10,699,Cc1nc2cc(N3CC(C(=O)NCc4ccccc4F)CC3=O)ccc2o1 (stereo unspecified)
11,931,Cc1ccc(S(=O)(=O)CCc2noc(-c3ccc4c(c3)OCO4)n2)cc1
12,704,CSCc1nnc(NC(=O)c2ccc(S(=O)(=O)N3CC(C)OC(C)C3)cc2)o1 (stereo unspecified)
13,875,CCCn1c(-c2cccc(C(=O)NCc3ccc(Br)cc3)c2)nc2cccnc21
14,1040,CC1CCCCN1c1cc(-n2cnc(C(=O)Nc3ccc4c(c3)OCCO4)c2)ncn1 (stereo unspecified)
15,764,CCOC(=O)CC1(NC(=O)N2CCc3c(c(C(=O)N4CCCC4)nn3C)C2)CCCCC1
16,759,Cc1cc2[nH]c(C(=O)Nc3ccc(Cl)cc3Cl)c(CN3CCOCC3)c2s1
17,866,CCOc1ccc(NC(=O)Cn2c(=O)n(-c3ccc(F)cc3)c(=O)c3c2cc(C)n3C)cc1
18,676,COc1ccc(NS(=O)(=O)c2cc(-c3[nH]ncc3C(=O)N3CCCC3)oc2C)cc1
19,921,CC1=NS(=O)(=O)N(C)C=C1C(=O)OCCOc1ccccc1
20,588,CC1CCc2[nH]nc(C(=O)N3CCN(C(C)C)CC3)c2C1 (stereo unspecified)
21,642,CN(CCNc1nc(-c2ccc(Cl)cc2)nc2ccccc12)C1CCCCC1
22,689,COc1ccc(CN2C[C@@H]3C(=O)N(Cc4ccc5c(c4)OCO5)C(=O)[C@@H]3C2)cc1

row,RP-LC retention time [s],SMILES
1,1310,Clc1ccc(-c2nnc(-c3cccnc3NCc3cccs3)o2)cc1
2,765,CCC(=O)NCCc1csc(C2CCN(C(=O)CC3CCCCC3)CC2)n1
3,1060,CC(C)NC(=O)Cn1cnc2nc(N3CCC(C(=O)NC4CC4)CC3)sc2c1=O
4,757,CCOC(=O)N1CCN(Cc2nc(-c3ccc(N4CCCCC4)nc3)no2)CC1
5,790,Cn1cc(S(=O)(=O)Nc2ccc(F)c(F)c2)c2cccnc21
6,862,O=C(Nc1cc(Cl)ccc1Cl)C1CN(C(=O)c2ccc(F)c(F)c2)C1
7,701,O=C(Nc1ccc(N2CCCN(C(=O)C3CC3)CC2)cc1)c1cncc(Br)c1
8,823,Cc1ccc(C)c(Sc2cc(N3CCC(C(=O)NCCCOC(C)C)CC3)ncn2)c1
9,640,CCN(Cc1ccccc1)Cc1nc(-c2ccc(N3CCCC3)nc2)no1
10,583,COc1ccc(CCN2C(=O)CC(Nc3ccc(N4CCOCC4)cc3)C2=O)cc1OC (stereo unspecified)
11,1130,CCOC(=O)c1noc2nc(C)nc(NCCc3ccc(C)cc3)c12
12,1270,CC(C)c1nc(-n2cccc2)sc1C(=O)Nc1ccccc1F
13,735,CC1CCN(CCNS(=O)(=O)c2ccccc2-c2nc(-c3ccccc3)no2)CC1
14,552,Cc1cc(C)c2c(N3CCSCC3)nc(C(=O)NCCCN3CCCC3)nc2n1
15,759,Cc1ccc(-c2cc3c4nnc(CCC(=O)NCCCOC(C)C)n4ccn3n2)cc1C
16,707,COc1cc(NC(=O)C2CCN(C(=O)C3Sc4ccccc4NC3=O)CC2)cc(OC)c1OC (stereo unspecified)
17,1080,O=C(Nc1cccc(F)c1)N1CCCC1c1nc(-c2cccc(Cl)c2)no1 (stereo unspecified)
18,717,CSc1nnc(-c2nn(C)c3c2CN(C(=O)c2ccccc2Br)CC3)n1C
19,590,CN(C)C(CNC(=O)C(=O)NCCC1=CCCCC1)c1ccsc1 (stereo unspecified)
20,733,CC(C)CNC(=O)Nc1ccc2c(c1)CCN2S(C)(=O)=O
21,869,CCn1c(=O)c2c(nc(/C=C/c3ccc(OC)c(OC)c3)n2C)n(CC)c1=O
22,856,Cc1ccc(S(=O)(=O)C2CS(=O)(=O)CC2S(=O)(=O)c2ccc(C)cc2)cc1 (stereo unspecified)

row,RP-LC retention time [s],SMILES
1,668,c1ccc(CN2CCN(c3c4c(nc5nc(-c6ccccc6)nn35)CCCC4)CC2)cc1
2,778,Cc1[nH]c(C(=O)N2CCC(CC(=O)NC3CCCC3)CC2)c(C)c1C(=O)OC(C)C
3,617,CCn1c(=O)c2c(C(=O)N3CCN(c4ccccn4)CC3)cc(=O)n(CC)c2n(C)c1=O
4,616,COC(=O)C(Cc1ccccc1)NC(=O)N1CCCn2nc(-c3cccnc3)cc2C1 (stereo unspecified)
5,772,COc1ccc(-c2nnc(-c3cc(S(=O)(=O)NCC(=O)O)ccc3Cl)o2)cc1
6,653,CCn1c(CCNC(=O)c2ccc(Cl)cc2)nc2cccnc21
7,745,CCCC1(CO)CCCN1C(=O)c1ccc2[nH]ccc2c1 (stereo unspecified)
8,818,Cc1ccc(S(=O)(=O)CCc2noc(-c3sc(C)nc3C)n2)cc1
9,667,CCCCNC(=O)C1CCN(Cc2cn(C)c3ccc(Cl)cc23)CC1
10,916,Fc1cccc(-c2noc(CSc3nccn3-c3ccccc3)n2)c1
11,1020,CC1CCN(c2cnn(CC(=O)Nc3cccc(Cl)c3F)c(=O)c2Cl)CC1
12,983,Cn1cnc(S(=O)(=O)N2CC(Oc3ccc(-c4nc(-c5ccccc5)no4)cc3)C2)c1
13,619,CCn1ccc(C(=O)NC2CC2)n1
14,1160,Cc1ccc2c(c1)N(C(=O)Cn1cccc1-c1nc(-c3ccc4c(c3)OCO4)no1)CCO2
15,729,Cc1cccc2c1NC(=O)C2(O)CC(=O)c1ccccc1Cl (stereo unspecified)
16,669,O=C(NCc1ccc(Cl)cc1)C1CCN(c2cn[nH]c(=O)c2)CC1
17,1040,CCc1ccc(-c2noc(Cn3cnc4c(nnn4-c4ccccc4OC)c3=O)n2)cc1
18,599,CCc1noc2nc(CCC(=O)NCCCN3CCN(C)CC3)nc(N3CCCCC3)c12
19,899,CCCNC(=O)N(C1CCOCC1)C1CCN(S(=O)(=O)c2ccccc2CC)CC1
20,1350,Cc1cc(C)c(S(=O)(=O)N2CCCC2c2nc(-c3cccc(Cl)c3)no2)c(C)c1 (stereo unspecified)
21,1030,C=C1C[C@@]23CC[C@H]4[C@@](C)(CCC[C@@]4(C)C(=O)O)[C@@H]2CC[C@]1(O)C3
22,652,COc1ccccc1CNC(=O)C1CCCN(c2nnc3ccccn23)C1 (stereo unspecified)

# Source: the METLIN SMRT retention time set (Domingo-Almenara et al. 2019)
